One experiment concerns DNA target AGCTTGGCG
Nature of the experiment: dissociation of zinc finger phage from DNA target by actinomycin D. The experiment is classed as binding. How it is done:
(§1) This example describes phage that bound DNA targets with higher affinity in the absence of ligand. These phage were isolated using either: (a) the same method as in example 1.1, or (b) by selection in the absence of small molecule and phage elution from DNA using a small molecule.
(§2) Phage selection is over 4 rounds. Binding reactions contain […] biotinylated DNA site immobilised on 50 mg streptavidin coated beads (Dynal) and a 1 ml solution of ;zinc finger phage library (as described in 1.1) Reactions were incubated for 1 h on a rolling platform. After this time, beads were washed 20 times as described in 1.1 and finally phage were eluted from the beads over 5 minutes using a solution containing ligand (10 μM Distamycin A, or 1 μM Actinomycin D in PBS/Zn).
The actinomycin D sensitive clone was selected with the DNA target AGCTTGGCG and its helices were sequenced as: […]

The subject of a further experiment is DNA sequence AGCTTGGCG
Nature of the experiment: phage ELISA: zinc finger phage binding to DNA target in presence and absence of actinomycin D. To be noted: FIG. 2; phage AD clone 1 and 6. How it is done:
Essentially the method was the same as used in the previous section using four rounds of a preselection step followed by a selection step, washing and elution. Differences in the method are described. The preselection step comprised of 7.5 μmol of biotinylated DNA target site immobilised on 18.75 μl streptavidin coated beads (Dynal) in a 100 μl mixture containing 4 μl phage library 96 μl PBS, 2% Marvel. 1% Tween-20. 50 μM ZnCl2 for 1 hour at room temperature with constant mixing. Phage selections were made in streptavidin coated tubes with the phage supernatant, 5 nM biotinylated target DNA, 10 μM actinomycin D in the presence of 1 μg poly [d(I-C)] competitor. The selections were incubated for 1 hour at room temperature. The bound phage were washed and eluted as described above.
ELISA was performed as described above but using 5 nM biotinylated target DNA. 0.25 μg poly[d(I−C)] competitor in the assay and 10 μM actinomycin D where appropriate. Phage were sequenced using Big Dye Terminator Cycle Sequencing Kit (Perkin Elmer Biosystems) and automated sequencing.
For orientation: An ELISA detects its analyte on a solid surface through an enzyme-linked reagent.

Experiment [1] deals with CAT reporter gene downstream of the sequence AAAAAAGGCG
In words: transient transfection CAT reporter assay with zinc finger-HSV VP16 fusion. The experiment is classed as cell-based. The conditions noted are these: in the presence of Distamycin A; zinc finger-HSV VP16 fusion cotransfected. From the text:
A reporter system is produced which produces a reporter signal conditionally depending on the binding of the zinc finger DNA binding molecule to its target DNA sequence.
A transient transfection system using zinc finger transcription factors is produced as described in Choo, Y., et al., (1997) J. Mol. Biol 273:525-532. This system comprises an expression plasmid which produces a phage-selected zinc finger fused to the activation domain of HSV VP 16. and a reporter plasmid which contains the recognition sequence of the zinc finger upstream of a CAT reporter gene.
Thus, a zinc finger which recognises the DNA sequence AAAAAAGGCG is selected by phage display as described in Example 1. By the method of the preceding examples said zinc finger is used to construct transcription factors as described above.
A transient expression experiment is conducted, wherein the CAT reporter gene on the reporter plasmid is placed downstream of the sequence AAAAAAGGCG. The reporter plasmid is cotransfected with a plasmid vector expressing the zinc finger-HSV fision under the control of a constitutive promoter. No activation of CAT gene expression is observed.
For orientation: Reporter assays use an easily measured gene product as a stand-in for the process of interest.

The next experiment deals with DNA sequence AAAAAGGCG
In words: phage ELISA: zinc finger phage binding to DNA target site in presence and absence of distamycin A. The conditions noted are these: FIG. 1; phage clone 3 (3/2F) and clone 4 (4/EF).

Experiment [2] deals with DNA target AAAAAGCGGAAAAA
In words: dissociation of zinc finger phage from DNA target by distamycin A. The experiment is classed as binding. The procedure:
as §1, §2
Some phage isolated by either of the above methods (a or b) bound DNA in the absence of ligand but could be displaced by concentrations of distamycin A at 10 μM and actinomycin D at 1 μM. The distamycin sensitive clone was selected using the DNA target AAAAAGCGGAAAAA and its helices were sequenced as: […]

Where [3] appears, read: phage bound DNA in the absence of ligand.

Structures are written as SMILES. *1 amine or outer side, *2 acyl side, *3 side chain or, on linkers, in order; H or OH if unused. Where a SMILES comes first, the peptide text is derived from it. Bridges are numbered along the chain shown (N, C = ends). Roman numbers before positions name the chains, in order. [ ]: non-standard residue; d: D form. Actinocin(9to1) = Cc1c2oc3c(C)ccc(C(=O)[*:1])c3nc-2c(C(=O)[*:2])c(N)c1=O; NMeV = CN[C@H](C(=O)O)C(C)C; Sar = CNCC(=O)O

With `Cc1c2oc3c(C)ccc(C(=O)N[C@@H]4C(=O)N[C@H](C(C)C)C(=O)N5CCC[C@H]5C(=O)N(C)CC(=O)N(C)[C@@H](C(C)C)C(=O)O[C@@H]4C)c3nc-2c(C(=O)N[C@@H]2C(=O)N[C@H](C(C)C)C(=O)N3CCC[C@H]3C(=O)N(C)CC(=O)N(C)[C@@H](C(C)C)C(=O)O[C@@H]2C)c(N)c1=O` [Actinomycin D] (I: T[dV]P[Sar][NMeV] / II: T[dV]P[Sar][NMeV]; ester I:1-I:C, II:1-II:C; linker I:N-II:N via Actinocin(9to1)), the “dissociation / displacement of phage from DNA by actinomycin D” value in the experiment with DNA target AGCTTGGCG (FIG. 6, actinomycin D sensitive clone) is “dissociated from the DNA”. In addition, in the experiment on DNA target AGCTTGGCG (setting [3]), the “actinomycin D concentration at which DNA-bound phage could be displaced” value came out at 1 µM. Further, the “effect of Actinomycin D concentration on binding of phage to the DNA sequence AGCTTGGCG” value with DNA sequence AGCTTGGCG is given as “causes phage binding to nucleic acid”.

With `Cn1cc(NC(=O)c2cc(NC(=O)c3cc(NC=O)cn3C)cn2C)cc1C(=O)NCCC(=N)N` [Distamycin A], in experiment [1], the “CAT reporter gene expression” value is “CAT expression is observed”. Besides, the “effect of Distamycin A concentration on binding of phage to the DNA sequence AAAAAGGCG” value with DNA sequence AAAAAGGCG is “causes phage binding to nucleic acid”. Also, the “dissociation / displacement of phage from DNA by distamycin A” value in experiment [2] (FIG. 6, distamycin sensitive clone) is reported as “dissociated from the DNA”. Moreover, the “distamycin A concentration at which DNA-bound phage could be displaced” value in experiment [2] (setting [3]) came out at 10 µM.

These data come from patent publication US20030092010A1, “Molecular switches” (priority 1999, published 2003).
